Measured values as given in ChEMBL document CHEMBL1773059, “NMS-P937, a 4,5-dihydro-1H-pyrazolo[4,3-h]quinazoline derivative as potent and selective Polo-like kinase 1 inhibitor” (Bioorg Med Chem Lett, 2011).

What was measured:
[1] = Inhibition of CK2 assessed as [33P]gamma-ATP incorporation into substrate after 60 mins by gamma counting
[2] = biological target: Tyrosine-protein kinase SYK (Homo sapiens, UniProt P43405); assay: Inhibition of Syk assessed as [33P]gamma-ATP incorporation into substrate after 60 mins by gamma counting
[3] = biological target: Eukaryotic elongation factor 2 kinase (Homo sapiens, UniProt O00418); assay: Inhibition of EEF2K assessed as [33P]gamma-ATP incorporation into substrate after 60 mins by gamma counting
Chain of Eukaryotic elongation factor 2 kinase (O00418 whole entry): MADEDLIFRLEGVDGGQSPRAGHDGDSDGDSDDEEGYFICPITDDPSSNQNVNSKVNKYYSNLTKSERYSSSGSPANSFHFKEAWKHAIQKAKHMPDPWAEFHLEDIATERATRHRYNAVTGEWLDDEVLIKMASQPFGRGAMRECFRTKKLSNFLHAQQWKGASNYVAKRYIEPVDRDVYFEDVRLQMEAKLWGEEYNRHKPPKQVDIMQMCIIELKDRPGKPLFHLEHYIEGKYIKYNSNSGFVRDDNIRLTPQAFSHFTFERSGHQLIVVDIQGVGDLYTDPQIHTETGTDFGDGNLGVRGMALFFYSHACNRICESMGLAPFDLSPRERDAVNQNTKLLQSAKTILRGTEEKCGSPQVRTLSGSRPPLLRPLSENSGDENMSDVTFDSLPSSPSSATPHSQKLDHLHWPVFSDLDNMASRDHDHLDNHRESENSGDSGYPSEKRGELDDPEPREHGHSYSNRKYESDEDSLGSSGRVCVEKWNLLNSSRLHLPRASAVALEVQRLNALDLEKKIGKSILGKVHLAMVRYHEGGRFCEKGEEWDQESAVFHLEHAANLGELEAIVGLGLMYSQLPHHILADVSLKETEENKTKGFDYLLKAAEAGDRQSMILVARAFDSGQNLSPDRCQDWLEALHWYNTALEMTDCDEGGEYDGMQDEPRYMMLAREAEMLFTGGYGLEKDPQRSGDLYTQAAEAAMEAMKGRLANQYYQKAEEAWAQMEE

[4] = biological target: Protein kinase C beta type (Homo sapiens, UniProt P05771); assay: Inhibition of PKCbeta assessed as [33P]gamma-ATP incorporation into substrate after 60 mins by gamma counting
[5] = tested on: Mus musculus; assay: Toxicity in CD1 nu/nu mouse xenografted with human HCT116 cells assessed as reversible body weight loss at 90 mg/kg, po once daily administered on days 1 to 2 in weekly scheduling for 4 cycles measured on day 36; settings: in vivo
[6] = Apparent permeability of the compound by PAMPA assay; type: ADME
[7] = tested on: Mus musculus; assay: Toxicity in CD1 nu/nu mouse xenografted with human HCT116 cells assessed as mortality at 90 mg/kg, po BID administered on days 1 to 2 in weekly scheduling for 4 cycles; type: organism-based, HCT-116; design: dose 90 mg/kg, route oral; settings: in vivo
[8] = biological target: RAC-alpha serine/threonine-protein kinase (Homo sapiens, UniProt P31749); assay: Inhibition of AKT1 assessed as [33P]gamma-ATP incorporation into substrate after 60 mins by gamma counting
[9] = tested on: Mus musculus; assay: Toxicity in CD1 nu/nu mouse xenografted with human HCT116 cells assessed as mortality at 120 mg/kg, po BID administered on days 1 to 2 in weekly scheduling for 4 cycles; type: organism-based, HCT-116; design: dose 120 mg/kg, route oral; settings: in vivo
[10] = biological target: Glycogen synthase kinase-3 beta (Homo sapiens, UniProt P49841); assay: Inhibition of GSK3-beta assessed as [33P]gamma-ATP incorporation into substrate after 60 mins by gamma counting
Chain of Glycogen synthase kinase-3 beta (P49841 whole entry): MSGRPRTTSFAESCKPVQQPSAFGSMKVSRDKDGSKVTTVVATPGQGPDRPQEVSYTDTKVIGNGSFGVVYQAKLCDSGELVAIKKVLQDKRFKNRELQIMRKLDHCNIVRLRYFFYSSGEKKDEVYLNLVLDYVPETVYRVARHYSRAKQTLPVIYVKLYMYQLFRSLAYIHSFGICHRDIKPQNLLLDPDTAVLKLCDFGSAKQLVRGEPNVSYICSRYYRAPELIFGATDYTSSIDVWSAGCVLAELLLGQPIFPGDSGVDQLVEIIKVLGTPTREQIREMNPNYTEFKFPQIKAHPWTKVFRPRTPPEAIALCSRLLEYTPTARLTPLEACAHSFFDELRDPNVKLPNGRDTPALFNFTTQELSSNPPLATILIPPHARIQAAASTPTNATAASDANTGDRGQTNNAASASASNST

[11] = Inhibition of PDGFR assessed as [33P]gamma-ATP incorporation into substrate after 60 mins by gamma counting
[12] = tested on: Mus musculus; assay: Toxicity in CD1 nu/nu mouse xenografted with human HCT116 cells assessed as reversible body weight loss at 45 mg/kg, iv BID administered on days 1 to 3 in weekly scheduling for 2 cycles measured on day 15; type: organism-based, HCT-116; design: dose 45 mg/kg, route intravenous; settings: in vivo
[13] = biological target: Serine/threonine-protein kinase NIM1 (Homo sapiens, UniProt Q8IY84); assay: Inhibition of NIM1 assessed as [33P]gamma-ATP incorporation into substrate after 60 mins by gamma counting
Chain of Serine/threonine-protein kinase NIM1 (Q8IY84 whole entry): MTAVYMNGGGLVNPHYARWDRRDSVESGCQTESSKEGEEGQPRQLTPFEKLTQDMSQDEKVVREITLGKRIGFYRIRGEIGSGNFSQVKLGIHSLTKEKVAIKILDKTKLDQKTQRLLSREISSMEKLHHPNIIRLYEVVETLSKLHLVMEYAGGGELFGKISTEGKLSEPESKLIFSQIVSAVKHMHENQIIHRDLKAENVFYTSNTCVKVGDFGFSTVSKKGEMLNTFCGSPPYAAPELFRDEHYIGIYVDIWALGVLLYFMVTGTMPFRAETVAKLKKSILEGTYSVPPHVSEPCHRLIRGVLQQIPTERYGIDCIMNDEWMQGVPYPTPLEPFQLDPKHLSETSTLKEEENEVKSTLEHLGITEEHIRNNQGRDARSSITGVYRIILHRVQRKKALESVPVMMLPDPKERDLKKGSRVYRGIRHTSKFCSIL

[14] = Intrinsic clearance in rat hepatocytes at 1 uM; type: ADME, cell-based, Liver, Hepatocyte
[15] = biological target: cAMP-dependent protein kinase catalytic subunit alpha (Homo sapiens, UniProt P17612); assay: Inhibition of PKAalpha assessed as [33P]gamma-ATP incorporation into substrate after 60 mins by gamma counting
[16] = biological target: Serine/threonine-protein kinase PAK 4 (Homo sapiens, UniProt O96013); assay: Inhibition of PAK4 assessed as [33P]gamma-ATP incorporation into substrate after 60 mins by gamma counting
Chain of Serine/threonine-protein kinase PAK 4 (O96013 whole entry): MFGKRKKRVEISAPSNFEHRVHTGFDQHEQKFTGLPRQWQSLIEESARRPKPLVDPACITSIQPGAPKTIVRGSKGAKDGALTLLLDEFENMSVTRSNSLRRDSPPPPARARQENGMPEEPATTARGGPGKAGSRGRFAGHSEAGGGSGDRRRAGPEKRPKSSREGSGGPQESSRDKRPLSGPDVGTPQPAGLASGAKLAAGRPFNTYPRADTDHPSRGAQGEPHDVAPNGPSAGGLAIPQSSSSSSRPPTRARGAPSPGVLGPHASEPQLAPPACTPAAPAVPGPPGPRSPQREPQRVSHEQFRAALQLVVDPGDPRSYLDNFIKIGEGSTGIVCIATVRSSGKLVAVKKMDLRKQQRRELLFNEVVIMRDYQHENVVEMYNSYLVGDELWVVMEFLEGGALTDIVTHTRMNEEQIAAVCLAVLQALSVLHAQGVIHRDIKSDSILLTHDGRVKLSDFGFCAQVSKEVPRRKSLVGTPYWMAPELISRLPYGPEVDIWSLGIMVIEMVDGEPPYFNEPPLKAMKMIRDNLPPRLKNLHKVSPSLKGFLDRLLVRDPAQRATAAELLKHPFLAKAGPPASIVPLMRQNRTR

[17] = biological target: Cyclin-dependent kinase 1/cyclin B1 (Homo sapiens, UniProt P06493); assay: Inhibition of CDK1/CYCB assessed as [33P]gamma-ATP incorporation into substrate after 60 mins by gamma counting; type: protein-complex assay
Chain of Cyclin-dependent kinase 1/cyclin B1 (P06493 whole entry): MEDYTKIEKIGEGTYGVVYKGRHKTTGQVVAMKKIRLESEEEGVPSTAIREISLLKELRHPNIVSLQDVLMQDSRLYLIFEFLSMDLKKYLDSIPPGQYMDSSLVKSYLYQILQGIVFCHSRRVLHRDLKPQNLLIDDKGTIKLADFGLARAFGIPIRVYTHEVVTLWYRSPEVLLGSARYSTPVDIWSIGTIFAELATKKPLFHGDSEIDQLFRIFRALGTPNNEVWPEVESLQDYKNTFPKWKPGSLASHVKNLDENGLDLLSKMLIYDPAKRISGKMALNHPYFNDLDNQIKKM
Chain of Cyclin-dependent kinase 1/cyclin B1 (P14635 whole entry, further chain): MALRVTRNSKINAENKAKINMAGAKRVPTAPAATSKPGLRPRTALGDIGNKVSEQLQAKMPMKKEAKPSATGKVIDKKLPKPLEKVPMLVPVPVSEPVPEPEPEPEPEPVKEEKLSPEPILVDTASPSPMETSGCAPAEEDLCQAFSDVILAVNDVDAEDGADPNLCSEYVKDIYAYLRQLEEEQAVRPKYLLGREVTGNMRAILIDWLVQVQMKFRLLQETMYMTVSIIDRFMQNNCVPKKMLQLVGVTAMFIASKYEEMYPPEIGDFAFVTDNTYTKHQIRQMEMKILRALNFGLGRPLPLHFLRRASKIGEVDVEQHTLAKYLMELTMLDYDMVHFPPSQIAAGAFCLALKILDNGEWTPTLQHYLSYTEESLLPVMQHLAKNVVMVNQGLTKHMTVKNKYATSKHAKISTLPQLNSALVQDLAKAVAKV

[18] = Solubility of compound in 10% Tween 80; type: physicochemical
[19] = biological target: Hepatocyte growth factor receptor (Homo sapiens, UniProt P08581); assay: Inhibition of MET assessed as [33P]gamma-ATP incorporation into substrate after 60 mins by gamma counting
[20] = biological target: MAP kinase-interacting serine/threonine-protein kinase 2 (Homo sapiens, UniProt Q9HBH9); assay: Inhibition of MNK2 assessed as [33P]gamma-ATP incorporation into substrate after 60 mins by gamma counting
Chain of MAP kinase-interacting serine/threonine-protein kinase 2 (Q9HBH9 whole entry): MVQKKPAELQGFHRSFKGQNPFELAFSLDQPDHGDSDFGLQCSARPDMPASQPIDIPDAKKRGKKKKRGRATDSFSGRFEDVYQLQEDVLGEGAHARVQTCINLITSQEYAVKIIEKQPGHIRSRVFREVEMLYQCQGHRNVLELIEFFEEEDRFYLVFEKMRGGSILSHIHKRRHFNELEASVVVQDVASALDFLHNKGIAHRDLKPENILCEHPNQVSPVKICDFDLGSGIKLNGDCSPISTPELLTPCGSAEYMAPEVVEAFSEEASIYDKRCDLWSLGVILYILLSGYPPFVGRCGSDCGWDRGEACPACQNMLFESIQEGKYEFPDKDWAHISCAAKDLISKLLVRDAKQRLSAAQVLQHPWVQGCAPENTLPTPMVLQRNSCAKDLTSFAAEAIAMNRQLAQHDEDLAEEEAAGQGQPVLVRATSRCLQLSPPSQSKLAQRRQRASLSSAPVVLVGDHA

[21] = biological target: Cyclin-dependent kinase 2/cyclin E1 (Homo sapiens, UniProt P24941); assay: Inhibition of CDK2/CYCE assessed as [33P]gamma-ATP incorporation into substrate after 60 mins by gamma counting; type: protein-complex assay
[22] = biological target: Mitotic checkpoint serine/threonine-protein kinase BUB1 (Homo sapiens, UniProt O43683); assay: Inhibition of BUB1 assessed as [33P]gamma-ATP incorporation into substrate after 60 mins by gamma counting
Chain of Mitotic checkpoint serine/threonine-protein kinase BUB1 (O43683 whole entry): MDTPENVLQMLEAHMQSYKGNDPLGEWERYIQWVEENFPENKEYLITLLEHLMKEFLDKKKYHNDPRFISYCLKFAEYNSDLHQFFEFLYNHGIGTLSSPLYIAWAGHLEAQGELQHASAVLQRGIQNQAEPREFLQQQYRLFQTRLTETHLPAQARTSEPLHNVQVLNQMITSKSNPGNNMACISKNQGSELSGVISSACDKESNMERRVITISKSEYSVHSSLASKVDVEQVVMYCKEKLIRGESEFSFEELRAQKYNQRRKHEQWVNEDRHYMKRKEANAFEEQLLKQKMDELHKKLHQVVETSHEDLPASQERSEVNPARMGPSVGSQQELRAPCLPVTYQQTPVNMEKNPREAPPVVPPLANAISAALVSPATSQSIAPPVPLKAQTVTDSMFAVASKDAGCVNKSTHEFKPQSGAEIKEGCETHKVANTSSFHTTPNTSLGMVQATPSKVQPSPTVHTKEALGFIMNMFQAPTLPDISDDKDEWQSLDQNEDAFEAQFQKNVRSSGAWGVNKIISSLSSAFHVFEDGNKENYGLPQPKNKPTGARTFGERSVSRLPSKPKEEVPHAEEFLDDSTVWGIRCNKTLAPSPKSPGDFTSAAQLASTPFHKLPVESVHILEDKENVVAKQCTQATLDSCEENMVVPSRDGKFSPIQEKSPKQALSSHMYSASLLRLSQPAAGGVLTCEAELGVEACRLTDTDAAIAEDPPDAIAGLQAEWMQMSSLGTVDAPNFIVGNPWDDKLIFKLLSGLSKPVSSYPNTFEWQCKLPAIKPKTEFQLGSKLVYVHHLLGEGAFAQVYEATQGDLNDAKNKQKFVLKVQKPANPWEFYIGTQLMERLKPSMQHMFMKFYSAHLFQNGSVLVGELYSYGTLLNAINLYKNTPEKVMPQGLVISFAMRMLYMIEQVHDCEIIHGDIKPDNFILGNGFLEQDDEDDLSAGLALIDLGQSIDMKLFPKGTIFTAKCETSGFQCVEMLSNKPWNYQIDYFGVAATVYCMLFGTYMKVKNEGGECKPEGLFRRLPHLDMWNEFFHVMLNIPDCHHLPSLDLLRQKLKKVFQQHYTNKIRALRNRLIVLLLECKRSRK

[23] = tested on: Caco-2; assay: Apparent permeability of the compound across human Caco2 cells; type: ADME, cell-based
[24] = biological target: Epidermal growth factor receptor (Homo sapiens, UniProt P04626+P00533+Q15303+P21860); assay: Inhibition of EGFR1 assessed as [33P]gamma-ATP incorporation into substrate after 60 mins by gamma counting; type: protein assay
[25] = tested on: HCT-116; assay: Antitumor activity against human HCT116 cells xenografted in CD1 nu/nu mouse assessed as tumor growth inhibition at 60 mg/kg, po administered once daily for 1 to 10 days measured on day 23; type: functional; settings: read-out: TGI
[26] = biological target: Tyrosine-protein kinase JAK1 (Homo sapiens, UniProt P23458); assay: Inhibition of JAK1 assessed as [33P]gamma-ATP incorporation into substrate after 60 mins by gamma counting
[27] = biological target: Mitogen-activated protein kinase 14 (Homo sapiens, UniProt Q16539); assay: Inhibition of P38alpha assessed as [33P]gamma-ATP incorporation into substrate after 60 mins by gamma counting
Chain of Mitogen-activated protein kinase 14 (Q16539 whole entry): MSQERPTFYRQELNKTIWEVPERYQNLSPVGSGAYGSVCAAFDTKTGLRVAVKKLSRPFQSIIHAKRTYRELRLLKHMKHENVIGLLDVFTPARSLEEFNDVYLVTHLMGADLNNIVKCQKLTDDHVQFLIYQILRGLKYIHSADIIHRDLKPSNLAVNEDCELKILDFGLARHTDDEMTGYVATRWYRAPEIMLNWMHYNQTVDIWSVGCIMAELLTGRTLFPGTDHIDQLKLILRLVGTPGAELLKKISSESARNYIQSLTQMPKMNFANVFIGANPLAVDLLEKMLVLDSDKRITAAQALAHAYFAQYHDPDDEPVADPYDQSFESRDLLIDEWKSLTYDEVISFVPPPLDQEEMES

[28] = biological target: Serine/threonine-protein kinase tousled-like 2 (Homo sapiens, UniProt Q86UE8); assay: Inhibition of TLK2 assessed as [33P]gamma-ATP incorporation into substrate after 60 mins by gamma counting
[29] = tested on: HCT-116; assay: Antitumor activity against human HCT116 cells xenografted in CD1 nu/nu mouse assessed as tumor growth inhibition at 120 mg/kg, po once daily administered on days 1 to 2 daily in weekly scheduling for 4 cycles measured on day 36; settings: HCT-116, po, 864 h, read-out: TGI
[30] = biological target: Serine/threonine-protein kinase pim-1 (Homo sapiens, UniProt P11309); assay: Inhibition of PIM1 assessed as [33P]gamma-ATP incorporation into substrate after 60 mins by gamma counting
[31] = tested on: HCT-116; assay: Antitumor activity against human HCT116 cells xenografted in CD1 nu/nu mouse assessed as tumor growth inhibition at 45 mg/kg, iv BID administered on days 1 to 3 in weekly scheduling for 2 cycles measured on day 24; type: functional; settings: HCT-116, 576 h, read-out: TGI
[32] = biological target: MAP kinase-activated protein kinase 2 (Homo sapiens, UniProt P49137); assay: Inhibition of MAPKAPK2 assessed as [33P]gamma-ATP incorporation into substrate after 60 mins by gamma counting
[33] = tested on: HCT-116; assay: Antitumor activity against human HCT116 cells xenografted in CD1 nu/nu mouse assessed as tumor growth inhibition at 90 mg/kg, po once daily administered on days 1 to 2 daily in weekly scheduling for 4 cycles measured on day 36; settings: HCT-116, po, 864 h, read-out: TGI
[34] = biological target: Maternal embryonic leucine zipper kinase (Homo sapiens, UniProt Q14680); assay: Inhibition of MELK assessed as [33P]gamma-ATP incorporation into substrate after 60 mins by gamma counting

CN1CCN(c2ccc(OC(F)(F)F)c(Nc3ncc4c(n3)-c3c(c(C(N)=O)nn3CCO)CC4)c2)CC1 [ONVANSERTIB]
IC50 [1]: 0.826 µM
IC50 [2]: > 10 µM
IC50 [3]: > 10 µM
IC50 [4]: > 10 µM
Activity [5]: 10%
Papp [6]: 49.6 ×10⁻⁶ cm/s
Activity [7]: Non-toxic
IC50 [8]: > 10 µM
Activity [9]: Non-toxic
IC50 [10]: > 10 µM
IC50 [11]: > 10 µM
Activity [12]: 16%
IC50 [13]: > 10 µM
CLint scaled at 1 µM [14]: 165 mL/min/kg
IC50 [15]: > 10 µM
IC50 [16]: > 10 µM
IC50 [17]: > 10 µM
solubility [18]: > 3400 µg/mL
IC50 [19]: > 10 µM
IC50 [20]: > 10 µM
IC50 [21]: > 10 µM
IC50 [22]: > 10 µM
Papp [23]: permeable
IC50 [24]: > 10 µM
inhibition in vivo at 60 mg/kg [25]: 89%
IC50 [26]: > 10 µM
IC50 [27]: > 10 µM
IC50 [28]: > 10 µM
inhibition in vivo at 120 mg/kg [29]: 84%
IC50 [30]: > 10 µM
inhibition in vivo at 45 mg/kg [31]: 83%
IC50 [32]: > 10 µM
inhibition in vivo at 90 mg/kg [33]: 71%
